# doi:10.1101/2023.09.04.556216v2 (bioRxiv, 2023)
# Numbered stars: 1 amine (or outer) side, 2 acyl side, 3 side chain; on linkers, the order of the positions; unused ones are H or OH. Bridge positions count the residues as written; N and C are the ends. Peptide text beside a SMILES is read from it. Biphenyl(4,4'-CH2)2 = c1cc(-c2ccc(C[*:2])cc2)ccc1C[*:1]
# Assays:
# PC3 xenograft tumor = PC3 xenograft tumor model; type: in vivo, BALB/c nude mice; conditions: for decrease of Ki67 in tumor (IHC) / increase of caspase-3 expression in tumor (IHC) / reduction in METTL3 expression in tumor (IHC) / reduction in m6A levels in tumor (IHC): 20 mg/kg peritumoral; for reduction in METTL3 expression in tumor (IHC) / reduction in m6A levels in tumor (IHC): compared to R9 and PBS groups; for average tumor mass relative to PBS group: 20 mg/kg, 10 days of treatment, Fig. S19c
# PCa cells = experiment: EdU labeling of cell proliferation; type: cell-based; conditions: 15 μM peptide, EdU labeling 2 h
# METTL3 = METTL3 (Homo sapiens, UniProt Q86U44); experiment: Western blot of METTL3/METTL14 level and half-life; type: cell-based; conditions: for METTL3 half-life: PC3 cells pre-treated with cycloheximide (CHX), WB, 25 μM over 12 h; for METTL3 (and METTL14) protein levels by WB: PC3 cells, RSM3 25 μM, 12 h
# Sequence of METTL3 (Q86U44 whole entry): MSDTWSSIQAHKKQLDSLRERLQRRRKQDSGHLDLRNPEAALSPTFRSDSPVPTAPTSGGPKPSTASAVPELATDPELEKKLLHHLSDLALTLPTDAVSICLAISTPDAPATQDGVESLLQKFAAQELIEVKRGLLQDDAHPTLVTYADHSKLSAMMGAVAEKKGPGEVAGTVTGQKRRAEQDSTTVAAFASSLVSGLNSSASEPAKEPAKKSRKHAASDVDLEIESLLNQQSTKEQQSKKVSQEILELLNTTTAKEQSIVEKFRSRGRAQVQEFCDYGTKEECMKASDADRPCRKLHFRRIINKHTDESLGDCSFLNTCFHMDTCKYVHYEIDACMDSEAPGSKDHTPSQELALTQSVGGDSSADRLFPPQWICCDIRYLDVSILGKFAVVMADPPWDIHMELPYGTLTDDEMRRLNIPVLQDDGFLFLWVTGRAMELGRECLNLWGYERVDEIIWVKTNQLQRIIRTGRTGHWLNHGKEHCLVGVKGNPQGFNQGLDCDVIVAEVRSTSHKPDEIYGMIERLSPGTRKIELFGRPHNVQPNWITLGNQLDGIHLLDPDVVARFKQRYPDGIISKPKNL
# m6A modification = experiment: m6A ELISA in cells; type: cell-based; conditions: PC3 or DU145 cells, Fig. 5f
# PC3 or DU145 = experiment: Colony formation assay; type: cell-based; conditions: 15 μM peptide, PC3 or DU145, n=3
# PC3 cells [1] = experiment: Flow cytometry cell cycle analysis, PC3; type: cell-based; conditions: 15 µM, 12 h, PBS group ∼8.5%
# METTL3/METTL14 complex = METTL3/METTL14 complex (Homo sapiens, UniProt Q86U44); experiment: Co-Immunoprecipitation of METTL3 and METTL14; type: cell-based; conditions: Co-IP, quantitative analysis, Fig. S11
# Sequence of METTL3/METTL14 complex (Q86U44 whole entry, one chain of several): as the sequence (Q86U44 whole entry) above
# PC3 cells [2] = experiment: Annexin V-FITC flow cytometry apoptosis, PC3; type: cell-based; conditions: 15 μM peptide
# DU145 cells = experiment: Cell viability; type: cell-based; set-up: unit not given beside the values; conditions: comparison experiment Fig. S17, unit not given
# PC3 cells [3] = experiment: Cell viability; type: cell-based; set-up: unit not given beside the values; conditions: comparison experiment Fig. S17, unit not given
# DU145 = experiment: Annexin V-FITC flow cytometry apoptosis, DU145; type: cell-based; conditions: 15 μM peptide, PBS ∼5%
# ASPC-1 xenograft tumors = experiment: ASPC-1 xenograft tumor model; type: in vivo, mice; conditions: 20 mg/kg, 10 days of treatment
# [4] = Serum stability in 25% FBS; type: in vitro ADME, bovine; conditions: 25% FBS (serum:buffer 1:3), pH 7.4
# [5] = peri-tumoral injection 20 mg/kg every two days for two weeks
Molecule,decrease of Ki67 in tumor (IHC) (PC3 xenograft tumor),increase of caspase-3 expression in tumor (IHC) (PC3 xenograft tumor),reduction in METTL3 expression in tumor (IHC) (PC3 xenograft tumor),reduction in m6A levels in tumor (IHC) (PC3 xenograft tumor),tumor growth compared to R9 or PBS control groups (PC3 xenograft tumor; [5]),EdU signal relative to PBS control group (PCa cells),METTL3 half-life (METTL3),m6A modification level relative to R9 and PBS treatment groups (m6A modification),fold reduction in colony formation (PC3 or DU145),average tumor mass relative to PBS group (PC3 xenograft tumor),METTL3 (and METTL14) protein levels by WB (METTL3),"IC50 in DU145, RSM3 vs STM2457 (DU145 cells)","IC50 in PC3, RSM3 vs STM2457 (PC3 cells [3])",further results
CSCC[C@H](NC(=O)[C@H](CS)NC(=O)[C@H](CCCNC(=N)N)NC(=O)[C@H](CCCNC(=N)N)NC(=O)[C@H](CCCNC(=N)N)NC(=O)[C@H](CCCNC(=N)N)NC(=O)[C@H](CCCNC(=N)N)NC(=O)[C@H](CCCNC(=N)N)NC(=O)[C@H](CCCNC(=N)N)NC(=O)[C@H](CCCNC(=N)N)NC(=O)[C@H](CCCNC(=N)N)NC(=O)[C@@H](N)CCCNC(=N)N)C(=O)N[C@@H](CCC(=O)O)C(=O)N[C@@H](CC(C)C)C(=O)NCC(=O)N[C@@H](CCCNC(=N)N)C(=O)N[C@@H](CCC(=O)O)C(=O)N[C@@H](CS)C(=O)N[C@@H](CC(C)C)C(=O)N[C@@H](CC(N)=O)C(=O)N[C@@H](CC(C)C)C(=O)N[C@@H](Cc1c[nH]c2ccccc12)C(N)=O [RM3] (H-RRRRRRRRRRCMELGRECLNLW-NH2; N-terminus assumed),~65%,~1.8 fold,~50%,~50%,significant suppression of tumor growth,~47.0%,dramatically reduced half-life,~20%,~20 fold,,,,,
"CSCC[C@@H]1NC(=O)[C@@H](NC(=O)[C@H](CCCNC(=N)N)NC(=O)[C@H](CCCNC(=N)N)NC(=O)[C@H](CCCNC(=N)N)NC(=O)[C@H](CCCNC(=N)N)NC(=O)[C@H](CCCNC(=N)N)NC(=O)[C@H](CCCNC(=N)N)NC(=O)[C@H](CCCNC(=N)N)NC(=O)[C@H](CCCNC(=N)N)NC(=O)[C@H](CCCNC(=N)N)NC(=O)[C@@H](N)CCCNC(=N)N)CSCc2ccc(cc2)-c2ccc(cc2)CSC[C@@H](C(=O)N[C@@H](CC(C)C)C(=O)N[C@@H](CC(N)=O)C(=O)N[C@@H](CC(C)C)C(=O)N[C@@H](Cc2c[nH]c3ccccc23)C(N)=O)NC(=O)[C@H](CCC(=O)O)NC(=O)[C@H](CCCNC(=N)N)NC(=O)CNC(=O)[C@H](CC(C)C)NC(=O)[C@H](CCC(=O)O)NC1=O [RSM3] (H-RRRRRRRRRRCMELGRECLNLW-NH2; linker 11-18 via Biphenyl(4,4'-CH2)2; N-terminus assumed)",~65%,~1.8 fold,~50%,~50%,significant suppression of tumor growth,~35.0%,dramatically reduced half-life,~20%,~20 fold,~37%,reduced,33.6 ± 1.5,26.5 ± 1.2,"tumor volume, fold smaller than controls (PC3 xenograft tumor; [5]): 2∼3 fold; cells arrested in sub-G1 phase, PC3 (PC3 cells [1]): ~29.2%; reduction of METTL3-METTL14 interaction (METTL3/METTL14 complex): fifty; late-stage share of total apoptotic PC3 cells (PC3 cells [2]): ~90%; proportion of apoptotic cells, fold higher than RM3 (PC3 cells [2]): approximately 2 fold; cells that entered apoptosis, PC3 (PC3 cells [2]; PBS 4%): ~60%; cells that entered apoptosis, DU145 (DU145): ~30%; tumor weight, lighter than PBS- and R9-treated controls (ASPC-1 xenograft tumors): ~50%; remaining at 6 h, 200 µM [4]: ~41.8%"
STM2457 [reference compound],,,,,,,,,,70%,no influence,149.3 ± 10.1,95.5 ± 3.6,
